Measurements published in US9345677B2, “Compositions, methods and kits relating to HER-2 cleavage” (Incyte Corporation, priority 2003, dated 2016).
Blank lines part the entries; values can stand above or below the compound they belong to.

What was measured:
[1] = test system: BT-474-SC1 tumor xenografts; assay: Tumor volume in BT-474-SC1 xenograft model; type: in vivo, mice
Method: For the BT-474-SC1 tumor model (see Results below), slow-release estrogen pellets (Innovative Research of America) were inserted subcutaneously (s.c.) into the flank of each mouse 24 hours prior to tumor cell inoculation. Balb/C nude and SCID-bg mice were obtained from Charles River Laboratories. Cells were harvested from their tissue culture plates, counted, centrifuged, and resuspended in serum free growth media and BD Matrigel™ at a 1:1 ratio immediately prior to implantation. In either one or two locations, 1−2×10^7 viable BT-474-SC1 cells were injected s.c. into the upper flank of each mouse. For all models, tumors were measured on a weekly basis and their volumes calculated using the formula [volume=(length×width^2)÷2]. Once the mean tumor volume of the required number of mice reached the desired size (usually >150 mm^3), they were randomized into treatment groups usually containing between 6 and 12 mice. Animals were then treated with compound or vehicle (10% DMAC, 30% propylene glycol) by mini-osmotic pump (Alzet, Cupertino, Calif.) implanted i.p. or s.c. for 7 to 28 days to achieve the desired compound exposure—controlled by altering the pump flow rate and/or the concentration of compound inside the pumps. Tumor size and body weights (a measure of animal health) were monitored weekly. Blood samples were also drawn (retro-orbital) while the osmotic pumps were functional and plasma was separated by centrifugation and stored at −80° C. for later pharmacokinetic and/or ELISA analysis, to determine the levels of circulating Her-2 ECD (described above). Note that in experiments designed to evaluate the effects of compound treatment on levels circulating Her-2 ECD, blood samples were drawn on the day osmostic pumps were implanted (day 0) and then again six days later (day 6).

circulating Her-2 ECD = assay: Plasma Her-2 ECD ELISA in BT-474-SC1 xenograft mice; type: in vivo
Method: For the BT-474-SC1 tumor model (see Results below), slow-release estrogen pellets (Innovative Research of America) were inserted subcutaneously (s.c.) into the flank of each mouse 24 hours prior to tumor cell inoculation. Balb/C nude and SCID-bg mice were obtained from Charles River Laboratories. Cells were harvested from their tissue culture plates, counted, centrifuged, and resuspended in serum free growth media and BD Matrigel™ at a 1:1 ratio immediately prior to implantation. In either one or two locations, 1−2×10^7 viable BT-474-SC1 cells were injected s.c. into the upper flank of each mouse. For all models, tumors were measured on a weekly basis and their volumes calculated using the formula [volume=(length×width^2)÷2]. Once the mean tumor volume of the required number of mice reached the desired size (usually >150 mm^3), they were randomized into treatment groups usually containing between 6 and 12 mice. […] Tumor size and body weights (a measure of animal health) were monitored weekly. […]
To measure levels of circulating Her-2 ECD in mice, plasmas were isolated from the blood samples described above and analyzed shortly after harvesting or stored frozen at −80° C. until analysis. To assess Her-2 ECD levels, plasma samples were diluted 1:5 and analyzed using a commercially available Her-2 ELISA kit per manufacturer's instructions (Oncogene Research, catalog #QIA10). […]

[2] = test system: AKT and ERK phosphorylation in BT474 cells; assay: Western blot of phospho-ERK and phospho-AKT; type: cell-based, human
Method: In experiments to determine the effects of MPI treatment on cell signaling, BT474 cells were plated at 1×10^5 cells/mL in 2 mL of media (RPMI+10% FCS+10 μg/mL insulin) in 12-well plates. […] After 5 days, the cells were harvested, lysed in 200 μL ice-cold lysis buffer containing 10 mM Tris, pH 7.2, 150 mM NaCl, 1% Triton X-100, 1% deoxycholic acid, 0.1% SDS, 50 μg/mL leupeptin, 50 μg/mL aprotinin, 1 mM sodium vanadate, 50 mM sodium fluoride, 1 mM PMSF. After 10 minutes on ice, the samples were microfuged at 13,000 rpm for 10 minutes at 4° C. and the supernatants collected. For analysis, 15 μL of 2× Laemmli sample buffer (BioRad, cat#161-0737) was added to 15 μL of extract, samples boiled for 5 minutes and loaded onto 12-well 12% Tris-Glycine gels (Novex, cat# EC60052). Gels were run in 1× Tris-Glycine-SDS buffer (Gibco BRL) using Novex minigel apparatus for approximately 1.5 hours. Following electrophoresis, proteins were transferred onto PVDF membrane (NEN, cat#NEF1000) in 1× Tris-Glycine buffer (Biorad, cat#161-0734) containing 20% MeOH for 2-3 hours using BioRad miniblot transfer system. After transfer, membranes were blocked in PBS+5% milk+0.1% Tween-20 for 1 h at RT. […]
Phosphorylation of AKT and the MAP kinase ERK were monitored by western blot analysis using phospho-specific antibodies.

[3] = test system: Her-2 cleavage in BT-474 cells; assay: Western blot of Her-2 ECD (105 kDa) in culture supernatants; type: cell-based, human
Method: BT474 cells were seeded in 1 mL of RPMI medium containing 10% FCS+10 μg/ml insulin in 12 well plates at 1×10^5 cells/well. The cells were incubated overnight at 37° C. The following morning, the media was removed and 1 mL of fresh serum-free RPMI media+/− compound was added back. The cells were incubated for 5 days at 37° C. After 5 days, the supernatants were removed. 15 μL of supernatant was added to 15 μL of sample buffer (Novex, catalog #LC2676) and the samples were loaded onto a 4-12% Tris-Glycine gradient gel (Novex, EC6035). The samples were separated for 2 hours at 125 volts. The gels were then transferred onto PVDF membrane (NEN, catalog #NEF-100) at 30 volts overnight in the cold. The following morning, the blots were blocked in 5% milk/PBS/0.05% Tween-20 for 1 hour at room temperature. Her-2 antibody (NeoMarkers, catalog #MS-1350-P1) was diluted 1:200 in 5% milk/PBS/0.05% Tween-20 and incubated with the blots for 2 hours at room temperature. The blots were washed 5 times (10 minutes each wash) in PBS/0.05% Tween-20. An HRP-conjugated goat anti-mouse IgG antibody was diluted 1:2000 and added to the blots for 1 hour at room temperature, The blots were washed 5 times (10 minutes each wash) in PBS/0.05% Tween-20. The blots were then incubated for 5 minutes with SuperSignal West Pico Chemiluminescent substrate (Pierce, catalog #34080) and exposed to film.

[4] = test system: AKT and ERK phosphorylation in MCF7 cells; assay: Western blot of phospho-ERK and phospho-AKT; type: cell-based, human; conditions: Her-2 non-overexpressing MCF7 cells
Her-2 sheddase = assay: Her-2 ECD ELISA of BT474 culture supernatants (Her-2 sheddase inhibition); type: cell-based, human
Method: (§1) BT474 cells were seeded in 100 μL of RPMI medium containing 10% FCS+10 μg/ml insulin in 96 well plates at 2×10^4 cells/well. The cells were incubated overnight at 37° C. The following morning, the media was removed and 100 μL of fresh media with or without compound was added back. The cells were incubated for about 72 hours at 37° C. After about 72 hours, the supernatants were removed. The samples were diluted 1:10 and analyzed using a commercially available Her-2 ELISA kit per manufacturer's instructions (Oncogene Research, catalog #QIA 10).
These inhibitors were added, at varying concentrations, to cultures of BT474 cells, a Her-2 overexpressing breast cancer cell line known to enzymatically process cell surface Her-2 (p185) and release the extracellular domain (ECD) into the culture supernatant, i.e., shedding of ECD. After 72 hours, cell culture supernatants were harvested and assayed for Her-2 ECD content using an ELISA assay.

[5] = test system: Her-2 cleavage in a primary breast tumor cell line that over expresses Her-2; assay: Shed Her-2 ECD in primary breast tumor cell culture; type: cell-based, human; conditions: primary breast tumor cell line over expressing Her-2
Method: Tumor specimens were obtained by Oncotech (Tustin, Calif.) according to their IRB approved protocol using standard procedures known in the art. Cell cultures were maintained in tissue culture flasks. Cells intended for experimental treatment were harvested in log phase with EDTA and were plated at a density of 1×10^5 cells/well in 24-well polystyrene plates in 0.5 ml RPMI with 10% FCS. Experiments to determine the effects of MPIs on shed Her-2 receptor were performed as described below for BT-474 cells.
as §1

[6] = test system: Her-2 cleavage in SK-BR3 cells; assay: Western blot of Her-2 ECD (105 kDa) in culture supernatants; type: cell-based, human; conditions: varying concentrations

SMILES: COC(=O)N1CC2(CC2)C[C@H](C(=O)NO)[C@H]1C(=O)N1CCN(c2ccccc2)CC1 [Compound 2, methyl (6S,7S)-7-[(hydroxyamino)carbonyl]-6-[(4-phenylpiperazin-1-yl)carbonyl]-5-azaspiro[2.5]octane-5-carboxylate]
- tumor size on day 6 compared to vehicle ([1]; BT474-SC1 xenograft, p=0.0001): significantly smaller
- magnitude of change in tumor volume ([1]; day 6): 27%
- partial remission (greater than a 25% reduction in tumor volume) ([1]; day 6): multiple tumors demonstrated a partial remission
- level of circulating ECD on day 6 compared to vehicle (circulating Her-2 ECD; BT-474-SC1 tumor bearing mice, osmotic pump, p<0.0001): significantly lower
- magnitude of change in ECD (circulating Her-2 ECD; day 6): 56%

- inhibition of Her-2 cleavage (ECD processing), ELISA (Her-2 sheddase; BT-474 cells, 72 hours): inhibition of Her-2 cleavage
SMILES: COc1ccc(S(=O)(=O)N2Cc3ccccc3C[C@@H]2C(=O)NO)cc1 [Compound 4, (3R)-N-hydroxy-2-((4-methoxyphenyl)sulfonyl)-1,2,3,4-tetrahydroisoquinoline-3-carboxamide]
- phosphorylation of both AKT and ERK ([2]; sheddase inhibitor in combination with 0.2 μg/ml Herceptin): detectable reduction in phosphorylation
- AKT or ERK phosphorylation, single agent ([2]; sheddase inhibitor less than 5 μM alone or 0.2 μg/ml Herceptin alone): did not demonstrate a detectable effect
- inhibition of Her-2 cleavage, Western blot ([3]; MPI alone, varying concentrations): inhibition of Her-2 cleavage
- blocking Her-2 cleavage, MPI in combination with Herceptin ([3]; combination with Herceptin): additive effect
- AKT and MAP kinase pathways [4]: not impacted
- inhibition of Her-2 cleavage [5]: inhibition of Her-2 cleavage
- inhibition of Her-2 cleavage, Western blot [6]: inhibition of Her-2 cleavage

SMILES: O=C(NO)[C@H]1CC2(CC2)CN[C@@H]1C(=O)N1CC=C(c2ccccc2)CC1 [Compound 3, (6S,7S)-6-{[4-phenyl-3,6-dihydropyridin-1(2H)-yl]carbonyl}-N-hydroxy-5-azaspiro[2.5]octane-7-carboxamide]
- tumor growth over a 28-day period ([1]; BT474-SC1 model, vehicle tumors tripled in size): complete suppression of tumor growth

- IC50 (Her-2 sheddase): 0.02 to 0.1 µM
SMILES: CC1(C)SCCN(S(=O)(=O)c2ccc(Oc3ccncc3)cc2)[C@H]1C(=O)NO [Compound 7, Prinomastat, reference compound]
